Laboratory results published in article PMC8286840, “Identifying SARS-CoV-2 antiviral compounds by screening for small molecule inhibitors of Nsp3 papain-like protease” (Biochemical Journal, 2021).
Counter-ions that a name gives are not always drawn. Like-named read-outs stand apart in the source and are kept apart here. Where a SMILES comes first, the peptide text is derived from it. Bridges are numbered along the chain shown (N, C = ends). [ ]: non-standard residue; d: D form. The star is where a group is joined. NMePhe(4-NMe2) = CN[C@@H](Cc1ccc(N(C)C)cc1)C(=O)O; Pip(4-oxo) = O=C1CCN[C@H](C(=O)O)C1; Picolinoyl(3-OH) = O=C(c1ncccc1O)*; Phg = N[C@H](C(=O)O)c1ccccc1; dAbu = CC[C@@H](N)C(=O)O

Experiments:
[1] = target: T1, SARS-CoV-2 PLpro (nsp3 1564–1878) (Severe acute respiratory syndrome coronavirus 2, UniProt P0DTD1); assay: biochemical; design: FRET-quenched peptide (Pro3) cleavage by PLpro, 10 min pre-incubation, slope over 20 min, normalised to no-compound control; conditions: low concentration screen, read-out: % of control remaining
[2] = target: T1, SARS-CoV-2 PLpro (nsp3 1564–1878); assay: biochemical; design: FRET-quenched peptide (Pro3) cleavage by PLpro, 10 min pre-incubation, slope over 20 min, normalised to no-compound control; conditions: high concentration screen, read-out: % of control remaining

SMILES: CC[C@H]1NC(=O)[C@@H](NC(=O)c2ncccc2O)[C@@H](C)OC(=O)[C@H](c2ccccc2)NC(=O)[C@@H]2CC(=O)CCN2C(=O)[C@H](Cc2ccc(N(C)C)cc2)N(C)C(=O)[C@@H]2CCCN2C1=O [Pristinamycin IA] ({Picolinoyl(3-OH)}-T[dAbu]P[NMePhe(4-NMe2)][Pip(4-oxo)][Phg]; ester 1-C)
- remaining activity at 1.25 µM ([1]; Well no.=7980): 96.9%
- remaining activity at 3.75 µM ([2]; Well no.=7980): 96.6%

SMILES: O=C(O)CCCCC(=O)O [Adipic acid]
- remaining activity at 1.25 µM ([1]; Well no.=6869): 102%
- remaining activity at 3.75 µM ([2]; Well no.=6869): 98.1%

SMILES: COc1ccc(/C=C/C(=O)Nc2ccccc2C(=O)O)cc1OC [Tranilast]
- remaining activity at 1.25 µM ([1]; Well no.=1519): 95.4%
- remaining activity at 1.25 µM ([1]; Well no.=1807): 96.3%
- remaining activity at 1.25 µM ([1]; Well no.=6317): 104%
- remaining activity at 3.75 µM ([2]; Well no.=1519): 94.6%
- remaining activity at 3.75 µM ([2]; Well no.=1807): 96.1%
- remaining activity at 3.75 µM ([2]; Well no.=6317): 97.4%

SMILES: COC1=CC(=O)O[C@@H](/C=C/c2ccccc2)C1 (racemic)
- remaining activity at 1.25 µM ([1]; Well no.=3371): 92.9%
- remaining activity at 3.75 µM ([2]; Well no.=3371): 95.8%

SMILES: O=C(O)CCC/C=C\C[C@@H]1[C@@H](/C=C/[C@@H](O)COc2cccc(C(F)(F)F)c2)[C@H](O)C[C@@H]1O (racemic) [Fluprostenol]
- remaining activity at 1.25 µM ([1]; Well no.=4528): 96.4%
- remaining activity at 3.75 µM ([2]; Well no.=4528): 99.8%

SMILES: CCCCC/C=C\C/C=C\C/C=C\C=C\[C@H](CCCC(=O)O)OO [5(S)-HPETE]
- remaining activity at 1.25 µM ([1]; Well no.=4327): 106%
- remaining activity at 3.75 µM ([2]; Well no.=4327): 103%

SMILES: CC[N+](CC)(CC)CCOc1ccc(/C=C/c2ccccc2)cc1 [MG 624]
- remaining activity at 1.25 µM ([1]; Well no.=972): 100%
- remaining activity at 3.75 µM ([2]; Well no.=972): 101%

SMILES: C[C@@H]1C(=O)O[C@H]2[C@H](O)[C@@]34[C@H]5C[C@@H](C(C)(C)C)[C@]36[C@@H](OC(=O)[C@@H]6O)O[C@@]4(C(=O)O5)[C@@]12O [Ginkgolide B]
- remaining activity at 1.25 µM ([1]; Well no.=3321): 97.9%
- remaining activity at 1.25 µM ([1]; Well no.=6484): 95.6%
- remaining activity at 3.75 µM ([2]; Well no.=3321): 101%
- remaining activity at 3.75 µM ([2]; Well no.=6484): 92.7%

SMILES: Cc1[nH]c2ccccc2c1CCNC(=O)c1ccccc1F [CK-666]
- remaining activity at 1.25 µM ([1]; Well no.=5720): 95.1%
- remaining activity at 3.75 µM ([2]; Well no.=5720): 95.4%

SMILES: Oc1ccc(Cn2cc[nH]c2=S)cc1 [1-(4-Hydroxybenzyl)imidazole-2-thiol]
- remaining activity at 1.25 µM ([1]; Well no.=516): 104%
- remaining activity at 3.75 µM ([2]; Well no.=516): 105%

SMILES: CC(C)(C)c1ccc(C(=O)NC(=S)Nc2ccc(N)cc2)cc1 [Tenovin-3]
- remaining activity at 1.25 µM ([1]; Well no.=7072): 102%
- remaining activity at 3.75 µM ([2]; Well no.=7072): 97.4%

SMILES: Oc1ccc(C2CNCc3sccc32)cc1O (stereo not drawn) [SKF 89626]
- remaining activity at 1.25 µM ([1]; Well no.=1456): 98.5%
- remaining activity at 3.75 µM ([2]; Well no.=1456): 99.7%

SMILES: C=C(C)[C@@H]1CC[C@]2(C(=O)O)CC[C@]3(C)[C@H](CC[C@@H]4[C@@]5(C)CC[C@H](O)C(C)(C)[C@@H]5CC[C@]43C)[C@@H]12 [Betulinic acid]
- remaining activity at 1.25 µM ([1]; Well no.=3089): 102%
- remaining activity at 1.25 µM ([1]; Well no.=6646): 105%
- remaining activity at 3.75 µM ([2]; Well no.=3089): 101%
- remaining activity at 3.75 µM ([2]; Well no.=6646): 100%

SMILES: CCOC(=O)N1CCC(NCCNC(=O)c2ccccc2C)CC1 [VU0357017 (hydrochloride)]
- remaining activity at 1.25 µM ([1]; Well no.=6995): 97.4%
- remaining activity at 3.75 µM ([2]; Well no.=6995): 95.5%

SMILES: CC(C)(C)c1ccc(S(=O)(=O)NCc2ccc(C(=O)Nc3cccnc3)cc2)cc1 [STF-31]
- remaining activity at 1.25 µM ([1]; Well no.=6059): 94.9%
- remaining activity at 3.75 µM ([2]; Well no.=6059): 94.5%

SMILES: Cc1cc(C(=O)Nc2cccc(C(=O)Nc3cccc(C(F)(F)F)c3)c2)on1 [T56-LIMKi]
- remaining activity at 1.25 µM ([1]; Well no.=5920): 101%
- remaining activity at 3.75 µM ([2]; Well no.=5920): 98.1%

SMILES: COC1=C(N)C(=O)c2nc(-c3nc(C(=O)O)c(C)c(-c4ccc(OC)c(OC)c4O)c3N)ccc2C1=O [Streptonigrin]
- remaining activity at 1.25 µM ([1]; Well no.=3304): 96.9%
- remaining activity at 3.75 µM ([2]; Well no.=3304): 96.9%

SMILES: CC(N)=NCCC[C@H](N)C(=O)O [L-N5-(1-Iminoethyl)ornithine hydrochloride]
- remaining activity at 1.25 µM ([1]; Well no.=967): 101%
- remaining activity at 3.75 µM ([2]; Well no.=967): 101%

SMILES: Cc1cc(N)c2ccccc2[n+]1CCCCCCCCCC[n+]1c(C)cc(N)c2ccccc21 [Dequalinium dichloride]
- remaining activity at 1.25 µM ([1]; Well no.=449): 101%
- remaining activity at 3.75 µM ([2]; Well no.=449): 96.8%

SMILES: Cn1cnc2c(ncn2[C@@H]2O[C@H](CO)[C@@H](O)[C@H]2O)c1=N [1-Methyladenosine]
- remaining activity at 1.25 µM ([1]; Well no.=7121): 102%
- remaining activity at 3.75 µM ([2]; Well no.=7121): 98.5%

SMILES: C=CCN1CC[C@]23c4c5ccc(O)c4O[C@H]2/C(=N/N=C2\CC[C@@]4(O)[C@H]6Cc7ccc(O)c8c7[C@@]4(CCN6CC=C)[C@H]2O8)CC[C@@]3(O)[C@H]1C5 [Naloxonazine]
- remaining activity at 1.25 µM ([1]; Well no.=2062): 101%
- remaining activity at 3.75 µM ([2]; Well no.=2062): 105%

SMILES: NCCNc1ncc(C(N)=O)c(Nc2cccc(C(F)(F)F)c2)n1 [Syk Inhibitor II]
- remaining activity at 1.25 µM ([1]; Well no.=2597): 99.7%
- remaining activity at 3.75 µM ([2]; Well no.=2597): 101%

SMILES: O=C(O)c1c[nH]c2ccccc12 [Indole-3-carboxylic acid]
- remaining activity at 1.25 µM ([1]; Well no.=6741): 95.4%
- remaining activity at 3.75 µM ([2]; Well no.=6741): 97.8%

SMILES: C=C1C[C@@]2(O)O[C@@]3(C[C@H]2C(C)C)[C@@H](C)CC[C@@H]13 [Curcumol]
- remaining activity at 1.25 µM ([1]; Well no.=5202): 90.5%
- remaining activity at 3.75 µM ([2]; Well no.=5202): 85.6%

SMILES: CNC(=O)[C@H]1O[C@@H](n2cnc3c(NCc4cccc(I)c4)ncnc32)[C@H](O)[C@@H]1O [IB-MECA]
- remaining activity at 1.25 µM ([1]; Well no.=923): 94.3%
- remaining activity at 3.75 µM ([2]; Well no.=923): 99.3%

SMILES: COc1ccc2nc3n[nH]c(C)c3c(NCCOCCO)c2c1 [Ras/Rac Transformation Blocker, SCH 51344]
- remaining activity at 1.25 µM ([1]; Well no.=2619): 96.5%
- remaining activity at 3.75 µM ([2]; Well no.=2619): 101%

SMILES: CCN1CCN(C(c2ccc(C(F)(F)F)cc2)c2ccc3cccnc3c2O)CC1 (stereo not drawn) [ML311]
- remaining activity at 1.25 µM ([1]; Well no.=6532): 99.7%
- remaining activity at 3.75 µM ([2]; Well no.=6532): 99.6%

SMILES: CN1[C@@H]2CCC[C@H]1C[C@@H](NC(=O)c1nn(C)c3ccccc13)C2 [Granisetron HCl]
- remaining activity at 1.25 µM ([1]; Well no.=5189): 99.3%
- remaining activity at 3.75 µM ([2]; Well no.=5189): 97.5%

SMILES: O=c1ccn([C@@H]2O[C@@]3(CO)CO[C@@H]2[C@@H]3O)c(=O)[nH]1
- remaining activity at 1.25 µM ([1]; Well no.=7864): 98.5%
- remaining activity at 3.75 µM ([2]; Well no.=7864): 92.8%

SMILES: C[C@@H]1OC(=O)[C@H]2C[C@H]3CCCC[C@@H]3[C@@H](/C=C/[C@H]3CCC[C@H](C)N3C)[C@@H]12 [Himbacine]
- remaining activity at 1.25 µM ([1]; Well no.=3329): 99%
- remaining activity at 3.75 µM ([2]; Well no.=3329): 98.7%

SMILES: N[C@@H](Cn1oc(=O)[nH]c1=O)C(=O)O [(+)-Quisqualic acid]
- remaining activity at 1.25 µM ([1]; Well no.=1507): 96.2%
- remaining activity at 3.75 µM ([2]; Well no.=1507): 97.1%

SMILES: Cc1[nH]c2ccccc2c1CC(=O)N[C@@H](Cc1ccccc1)C(=O)N(C)c1ccccc1 [(S)-N-methyl-2-(2-(2-methyl-1H-indol-3-yl)acetamido)-N,3-diphenylpropanamide]
- remaining activity at 1.25 µM ([1]; Well no.=5917): 106%
- remaining activity at 3.75 µM ([2]; Well no.=5917): 103%
